Experimental findings from ChEMBL document CHEMBL6092203, “Discovery of Novel PROTAC-Based HPK1 Degraders with High Potency and Selectivity for Cancer Immunotherapy” (J Med Chem, 2024) are described below.

For experiment [1], the target named is Mitogen-activated protein kinase kinase kinase kinase 1 (Homo sapiens, UniProt Q92918). In words: Induction of HPK1 (unknown origin) degradation.
The target in experiment [2] is Protein cereblon/Mitogen-activated protein kinase kinase kinase kinase 1 (Homo sapiens, UniProt Q92918+Q96SW2). Briefly: PROTAC activity at CRBN/HPK1 in human Jurkat cells incubated for 24 hrs by Western blotting analysis. The experiment is classed as cell-based.
Protein cereblon/Mitogen-activated protein kinase kinase kinase kinase 1, sequence (Q92918 whole entry): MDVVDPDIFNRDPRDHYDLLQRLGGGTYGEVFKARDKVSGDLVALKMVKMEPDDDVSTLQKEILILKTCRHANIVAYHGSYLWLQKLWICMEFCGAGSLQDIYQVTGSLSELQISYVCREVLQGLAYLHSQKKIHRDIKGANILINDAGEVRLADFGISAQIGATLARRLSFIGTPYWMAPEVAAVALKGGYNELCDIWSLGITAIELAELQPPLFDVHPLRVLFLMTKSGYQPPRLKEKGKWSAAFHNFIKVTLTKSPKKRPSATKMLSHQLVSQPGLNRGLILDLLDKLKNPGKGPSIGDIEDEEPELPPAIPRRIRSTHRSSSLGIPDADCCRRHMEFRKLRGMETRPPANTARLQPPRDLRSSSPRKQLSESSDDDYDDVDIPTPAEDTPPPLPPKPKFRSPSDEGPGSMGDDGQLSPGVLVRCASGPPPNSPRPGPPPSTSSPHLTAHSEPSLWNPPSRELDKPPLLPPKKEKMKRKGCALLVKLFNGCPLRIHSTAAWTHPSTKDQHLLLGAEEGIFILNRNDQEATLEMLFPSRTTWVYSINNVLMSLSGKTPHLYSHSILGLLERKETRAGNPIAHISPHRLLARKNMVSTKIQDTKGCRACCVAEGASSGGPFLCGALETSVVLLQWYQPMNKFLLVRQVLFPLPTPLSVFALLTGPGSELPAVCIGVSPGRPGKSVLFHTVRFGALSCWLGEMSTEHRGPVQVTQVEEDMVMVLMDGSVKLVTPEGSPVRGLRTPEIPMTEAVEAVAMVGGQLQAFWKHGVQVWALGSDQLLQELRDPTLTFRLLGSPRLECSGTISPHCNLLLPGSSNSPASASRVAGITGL
Protein cereblon/Mitogen-activated protein kinase kinase kinase kinase 1, sequence (Q96SW2 whole entry): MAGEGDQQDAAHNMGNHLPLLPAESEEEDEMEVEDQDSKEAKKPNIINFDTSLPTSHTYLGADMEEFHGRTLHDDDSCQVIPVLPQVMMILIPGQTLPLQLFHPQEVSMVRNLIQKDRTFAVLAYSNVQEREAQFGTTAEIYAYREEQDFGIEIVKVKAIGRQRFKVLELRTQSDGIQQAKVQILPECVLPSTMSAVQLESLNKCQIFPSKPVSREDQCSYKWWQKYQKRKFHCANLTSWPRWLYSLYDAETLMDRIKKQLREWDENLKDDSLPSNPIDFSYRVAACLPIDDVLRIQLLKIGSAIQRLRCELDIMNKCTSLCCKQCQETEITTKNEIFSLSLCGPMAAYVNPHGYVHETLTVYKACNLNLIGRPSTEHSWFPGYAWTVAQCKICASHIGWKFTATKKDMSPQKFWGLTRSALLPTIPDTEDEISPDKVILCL
Experiment [3] deals with MC-38. In words: Synergistic antitumor activity against mouse MC38 cells implanted in C57BL/6J mouse assessed as reduction in tumor volume at 10 mg/kg, po bid administered for 3 to 4 weeks in presence of 5 mg/kg anti-PD1 and measured twice a week (reference value: 1549.22 +/- 217.92 mm3). The experiment is classed as functional. The conditions noted are these: time 3-4 weeks.

For experiment [4], the system named is MC-38. In words: Synergistic antitumor activity against mouse MC38 cells implanted in C57BL/6J mouse assessed as tumor weight inhibition rate at 10 mg/kg, po bid measured after 4 weeks in presence of 5 mg/kg anti-PD1 and measured twice a week. It counts as functional. Set-up: scale not given: the % may be the effect or the level left.
In experiment [5] the test system is MC-38. In words: Synergistic antitumor activity against mouse MC38 cells implanted in C57BL/6J mouse assessed as tumor growth inhibition at 10 mg/kg, po bid measured after 4 weeks in presence of 5 mg/kg anti-PD1 and measured twice a week. It counts as functional. The conditions noted are these: MC-38, 672 h, read-out: TGI.
Experiment [6] concerns MC-38. Briefly: Antitumor activity against mouse MC38 cells implanted in C57BL/6J mouse assessed as reduction in tumor volume at 1 mg/kg, po BID administered for 3 to 4 weeks (reference value: 1549.22 +/- 217.92 mm3). The conditions noted are these: time 3-4 weeks. It counts as functional.
The subject of experiment [7] is MC-38. Briefly: Antitumor activity against mouse MC38 cells implanted in C57BL/6J mouse assessed as reduction in tumor volume at 10 mg/kg, po BID administered for 3 to 4 weeks (reference value: 1549.22 +/- 217.92 mm3). It counts as functional. The conditions noted are these: time 3-4 weeks.
The test system of experiment [8] is MC-38. In words: Synergistic antitumor activity against mouse MC38 cells implanted in C57BL/6J mouse assessed as reduction in tumor volume at 1 mg/kg, po bid administered for 3 to 4 weeks in presence of 5 mg/kg anti-PD1 and measured twice a week (reference value: 1549.22 +/- 217.92 mm3). It counts as functional. The conditions noted are these: time 3-4 weeks.

In experiment [9] the test system is MC-38. In words: Synergistic antitumor activity against mouse MC38 cells implanted in C57BL/6J mouse assessed as reduction in tumor weight at 1 mg/kg, po bid administered for 3 to 4 weeks in presence of 5 mg/kg anti-PD1 and measured twice a week (reference value: 1.79 +/- 0.24 g). The experiment is classed as functional. The conditions noted are these: time 3-4 weeks.

Experiment [10] deals with MC-38. Briefly: Antitumor activity against mouse MC38 cells implanted in C57BL/6J mouse assessed as tumor growth inhibition at 1 mg/kg, po BID measured after 4 weeks. The conditions noted are these: MC-38, 672 h, read-out: TGI. It counts as functional.
The test system of experiment [11] is MC-38. In words: Synergistic antitumor activity against mouse MC38 cells implanted in C57BL/6J mouse assessed as reduction in tumor weight at 10 mg/kg, po bid administered for 3 to 4 weeks in presence of 5 mg/kg anti-PD1 and measured twice a week (reference value: 1.79 +/- 0.24 g). The experiment is classed as functional. The conditions noted are these: time 3-4 weeks.

The test system of experiment [12] is MC-38. In words: Antitumor activity against mouse MC38 cells implanted in C57BL/6J mouse assessed as reduction in tumor weight at 1 mg/kg, po BID administered for 3 to 4 weeks (reference value: 1.79 +/- 0.24 g). It counts as functional. The conditions noted are these: time 3-4 weeks.
Experiment [13] concerns MC-38. In words: Antitumor activity against mouse MC38 cells implanted in C57BL/6J mouse assessed as reduction in tumor weight at 10 mg/kg, po BID administered for 3 to 4 weeks (reference value: 1.79 +/- 0.24 g). The experiment is classed as functional. The conditions noted are these: time 3-4 weeks.
Experiment [14] concerns MC-38. Briefly: Antitumor activity against mouse MC38 cells implanted in C57BL/6J mouse assessed as tumor weight inhibition rate at 10 mg/kg, po BID measured after 4 weeks. The experiment is classed as functional. Set-up: scale not given: the % may be the effect or the level left.
Experiment [15] concerns MC-38. In words: Synergistic antitumor activity against mouse MC38 cells implanted in C57BL/6J mouse assessed as tumor weight inhibition rate at 1 mg/kg, po bid measured after 4 weeks in presence of 5 mg/kg anti-PD1 and measured twice a week. The experiment is classed as functional. Set-up: scale not given: the % may be the effect or the level left.
Experiment [16] has as its system MC-38. In words: Synergistic antitumor activity against mouse MC38 cells implanted in C57BL/6J mouse assessed as tumor growth inhibition at 1 mg/kg, po bid measured after 4 weeks in presence of 5 mg/kg anti-PD1 and measured twice a week. The experiment is classed as functional. The conditions noted are these: MC-38, 672 h, read-out: TGI.
Experiment [17] relates to MC-38. Briefly: Antitumor activity against mouse MC38 cells implanted in C57BL/6J mouse assessed as tumor growth inhibition at 10 mg/kg, po BID measured after 4 weeks. It counts as functional. The conditions noted are these: MC-38, 672 h, read-out: TGI.
For experiment [18], the system named is MC-38. In words: Antitumor activity against mouse MC38 cells implanted in C57BL/6J mouse assessed as tumor weight inhibition rate at 1 mg/kg, po BID measured after 4 weeks. It counts as functional. Set-up: scale not given: the % may be the effect or the level left.

Mitogen-activated protein kinase kinase kinase kinase 1, sequence (Q92918 whole entry): as the sequence (Q92918 whole entry) above

For `CN1CCC(n2cc(-c3c[nH]c4ncc(-c5ccc(N6CCC(CC7CCN(C(=O)c8ccc(Cl)c(N9CCC(=O)NC9=O)c8)CC7)CC6)nc5)nc34)cn2)CC1`, the values for the DC50 in experiment [1] and in [2] were 1.8 nM and 21.4 nM, respectively.

As to `CCC(CC)n1cc(Oc2nc(-c3cc(C)c(C(=O)NCCN4CC[C@@H](F)C4)c(C)c3)cnc2N)cn1`, the Activity is 423.84 mm3 in experiment [3]; 68.3% in experiment [4]; 1349.36 mm3 in experiment [6]; 1896.55 mm3 in [7]; 367.21 mm3 in experiment [8]; 0.48 g in experiment [9]. Further, the Activity in [11] was 0.57 g; in experiment [12] it was 2.04 g; in [13], 2.27 g; in experiment [14], -26.45%; in experiment [15] it was 73.27%; in experiment [18] it was -13.75%. For the same compound, the results for the inhibition in vivo at 10 mg/kg in [5] and in experiment [17] were 72.6% and -22.4%, respectively. Moreover, the inhibition in vivo at 1 mg/kg in experiment [10] amounted to 12.9%; in [16], 76.3%.
